Experiments:
Assay in all cases: Bliss excess, mean over the matrix (fraction); higher = more synergy
[1] = test system: HT-1080 (Other Solid Carcinomas)
In short: (§1)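 After 24 hours at 37°C and 5% CO2 in 1536-well plates, cells in DMEM/F12 or RPMI plus 10% FBS received two-drug dose matrices for 72 hours. Viability came from CellTiter-Glo 2.0 luminescence and was scaled as inhibition, anchored at 0 by vehicle wells and at 1 by blank wells. Combination Emax is taken as the second-highest inhibition in the matrix, and Bliss excess as the observed combination effect less EA + EB − EA·EB, with EA and EB the single-agent effects.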

SK-N-SH (Neuroblastoma) = test system: SK-N-SH (Neuroblastoma)
In short: as §1

[2] = test system: NCI-H1341 (Small Cell Lung Carcinoma)
In short: as §1

[3] = test system: DBTRG-05MG (Glioblastoma)
In short: as §1

AM-38 (Glioblastoma) = test system: AM-38 (Glioblastoma)
In short: as §1

[4] = test system: COR-L88 (Small Cell Lung Carcinoma)
In short: as §1

[5] = test system: MONO-MAC-6 (Acute Myeloid Leukemia)
In short: as §1

NCI-H226 (Mesothelioma) = test system: NCI-H226 (Mesothelioma)
In short: as §1

[6] = test system: T84 (Colorectal Carcinoma)
In short: as §1

[7] = test system: Raji (Burkitt's Lymphoma)
In short: as §1

IST-MEL1 (Melanoma) = test system: IST-MEL1 (Melanoma)
In short: as §1

[8] = test system: SNU-C2B (Colorectal Carcinoma)
In short: as §1

[9] = test system: TUR (Acute Myeloid Leukemia)
In short: as §1

[10] = test system: MOLT-13 (T-Lymphoblastic Leukemia)
In short: as §1

[11] = test system: IA-LM (Non-Small Cell Lung Carcinoma)
In short: as §1

[12] = test system: BHT-101 (Thyroid Gland Carcinoma)
In short: as §1

[13] = test system: SiHa (Cervical Carcinoma)
In short: as §1

[14] = test system: SAT (Head and Neck Carcinoma)
In short: as §1

[15] = test system: MS-1 (Small Cell Lung Carcinoma)
In short: as §1

Structure (SMILES) | Bliss excess [1] | Bliss excess (SK-N-SH (Neuroblastoma)) | Bliss excess [2] | Bliss excess [3] | Bliss excess (AM-38 (Glioblastoma)) | Bliss excess [4] | Bliss excess [5] | Bliss excess (NCI-H226 (Mesothelioma)) | Bliss excess [6] | Bliss excess [7] | Bliss excess (IST-MEL1 (Melanoma)) | Bliss excess [8] | Bliss excess [9] | Bliss excess [10] | Bliss excess [11] | Bliss excess [12] | Bliss excess [13] | Bliss excess [14] | Bliss excess [15]
NC1(C(=O)N[C@@H](CCO)c2ccc(Cl)cc2)CCN(c2ncnc3[nH]ccc23)CC1 [Capivasertib] + COc1nnc2ccc(N3CCC(c4ccc(OCCN5CCN(C)C(=O)[C@H]5C)cc4)CC3)nn12 [AZD5153] (first compound max 10 µM, 7x7, partner max 1 µM) | -0.0558 | 0.0362 | 0.0383 | -0.0239 | 0.0039 | 0.0516 | -0.003 | -0.0165 | -0.0695 | 0.0469 | -0.0143 | -0.0442 | 0.0661 | -0.0111 | -0.141 | -0.0479 | 0.006 | -0.0508 | -0.0737
NC1(C(=O)N[C@@H](CCO)c2ccc(Cl)cc2)CCN(c2ncnc3[nH]ccc23)CC1 [Capivasertib] + C[C@@H]1COCCN1C2=NC(=NC(=C2)C3(CC3)[S@](=N)(=O)C)C4=C5C=CNC5=NC=C4 [AZD6738] (first compound max 10 µM, 7x7, partner max 10 µM) | -0.0473 | -0.0576 | -0.0251 | 0.0064 | -0.0121 | -0.0456 | -0.0397 | -0.0775 | -0.111 | 0.0187 | -0.0446 | 0.0158 | -0.0398 | -0.0387 | 0.008 | -0.0345 | 0.0259 | -0.0345 | -0.0465
NC1(C(=O)N[C@@H](CCO)c2ccc(Cl)cc2)CCN(c2ncnc3[nH]ccc23)CC1 [Capivasertib] + Cn1cnc2c(F)c(Nc3ccc(Br)cc3Cl)c(C(=O)NOCCO)cc21 [Selumetinib] (first compound max 10 µM, 7x7, partner max 10 µM) | 0.0159 | -0.0223 | 0.0605 | -0.0148 | 0.0564 | 0.0084 | 0.0394 | -0.063 | -0.0598 | 0.0036 | 0.0465 | -0.022 | 0.0879 | 0.0339 | -0.113 | 0.081 | -0.0081 | 0.0768 | -0.005
COc1cc2ncnc(Nc3ccc(F)c(Cl)c3)c2cc1OCCCN1CCOCC1 [Gefitinib] + CC(C)n1c(=O)n(C)c2cnc3cc(F)c(-c4ccc(OCCCN5CCCCC5)nc4)cc3c21 [AZD1390] (first compound max 10 µM, 7x7, partner max 0.3 µM) | -0.0548 | -0.0718 | -0.0399 | -0.0482 | -0.0811 | -0.0652 | -0.0545 | -0.0661 | -0.035 | -0.0343 | -0.0684 | -0.06 | -0.0185 | -0.0246 | -0.111 | -0.035 | -0.0732 | -0.0522 | -0.0252
CS(=O)(=O)CCNCc1ccc(-c2ccc3ncnc(Nc4ccc(OCc5cccc(F)c5)c(Cl)c4)c3c2)o1 [Lapatinib] + C[C@@H](Oc1cc(-c2cnn(C3CCNCC3)c2)cnc1N)c1c(Cl)ccc(F)c1Cl [Crizotinib] (first compound max 10 µM, 7x7, partner max 10 µM) | -0.012 | -0.0618 | 0.0876 | -0.0334 | -0.0295 | -0.0234 | -0.0438 | -0.0513 | -0.006 | 0.0203 | -0.0095 | -0.0515 | -0.0168 | 0.0036 | -0.0133 | -0.0399 | -0.0394 | -0.0358 | -0.0784
CC(=O)c1c(C)c2cnc(Nc3ccc(N4CCNCC4)cn3)nc2n(C2CCCC2)c1=O [Palbociclib] + CC1(C)CCC(CN2CCN(c3ccc(C(=O)NS(=O)(=O)c4ccc(NCC5CCOCC5)c([N+](=O)[O-])c4)c(Oc4cnc5[nH]ccc5c4)c3)CC2)=C(c2ccc(Cl)cc2)C1 [Venetoclax] (first compound max 10 µM, 7x7, partner max 1 µM) | -0.0573 | -0.0185 | 0.0245 | -0.0477 | -0.0058 | -0.0764 | 0.0129 | -0.0174 | -0.0556 | 0.0634 | 0.0117 | -0.036 | 0.0153 | 0.112 | -0.0647 | -0.0607 | -0.0347 | -0.0489 | -0.0827
CC(=O)c1c(C)c2cnc(Nc3ccc(N4CCNCC4)cn3)nc2n(C2CCCC2)c1=O [Palbociclib] + Cc1c2c(nn1C)CSCc1cc(n(C)n1)CSc1cc(c3ccccc3c1)OCCCc1c(C(=O)O)n(C)c3c-2c(Cl)ccc13 [AZD5991] (first compound max 10 µM, 7x7, partner max 1 µM) | -0.0592 | -0.0257 | -0.031 | -0.0561 | -0.0448 | 0.0122 | -0.0016 | -0.0287 | -0.0578 | -0.0109 | -0.0328 | -0.0477 | -0.0441 | 0.0478 | -0.161 | -0.0105 | -0.0561 | -0.0367 | -0.0451
CC(=O)c1c(C)c2cnc(Nc3ccc(N4CCNCC4)cn3)nc2n(C2CCCC2)c1=O [Palbociclib] + Cn1cnc2c(F)c(Nc3ccc(Br)cc3Cl)c(C(=O)NOCCO)cc21 [Selumetinib] (first compound max 10 µM, 7x7, partner max 10 µM) | -0.0519 | -0.0238 | -0.0199 | 0.0013 | 0.0242 | -0.026 | 0.0184 | -0.0052 | -0.0476 | -0.0103 | 0.052 | 0.0282 | -0.0069 | 0.193 | 0.0126 | -0.0073 | -0.0404 | 0.0504 | -0.0601
C[C@@H](c1ccc2nccn2c1)n1nnc2ncc(-c3cnn(C)c3)nc21 [Savolitinib] + CC1(C)CCC(CN2CCN(c3ccc(C(=O)NS(=O)(=O)c4ccc(NCC5CCOCC5)c([N+](=O)[O-])c4)c(Oc4cnc5[nH]ccc5c4)c3)CC2)=C(c2ccc(Cl)cc2)C1 [Venetoclax] (first compound max 1 µM, 7x7, partner max 1 µM) | -0.0676 | -0.0289 | 0.0535 | -0.0572 | -0.0839 | -0.021 | 0.0005 | -0.0342 | -0.0649 | -0.0114 | -0.0306 | -0.0831 | -0.0452 | -0.0181 | -0.0963 | -0.0341 | -0.0536 | -0.131 | -0.0098
C[C@@H](c1ccc2nccn2c1)n1nnc2ncc(-c3cnn(C)c3)nc21 [Savolitinib] + Cc1c2c(nn1C)CSCc1cc(n(C)n1)CSc1cc(c3ccccc3c1)OCCCc1c(C(=O)O)n(C)c3c-2c(Cl)ccc13 [AZD5991] (first compound max 1 µM, 7x7, partner max 1 µM) | -0.0475 | -0.0501 | 0.0274 | -0.0596 | -0.0194 | -0.0019 | 0.0346 | -0.04 | -0.0652 | -0.0383 | -0.0243 | -0.0554 | 0.0026 | -0.0368 | 0.0086 | -0.0307 | -0.0335 | -0.0558 | -0.0062
Cn1cnc2c(F)c(Nc3ccc(Br)cc3Cl)c(C(=O)NOCCO)cc21 [Selumetinib] + C=CCn1c(=O)c2cnc(Nc3ccc(N4CCN(C)CC4)cc3)nc2n1-c1cccc(C(C)(C)O)n1 [AZD1775] (first compound max 10 µM, partner max 1 µM) | -0.0299 | -0.11 | 0.0153 | 0.0098 | -0.0541 | -0.011 | -0.013 | -0.0331 | -0.0495 | -0.041 | 0.0242 | -0.0667 | -0.0146 | 0.0535 | -0.0017 | -0.0417 | -0.0422 | -0.0151 | -0.0347
Cn1cnc2c(F)c(Nc3ccc(Br)cc3Cl)c(C(=O)NOCCO)cc21 [Selumetinib] + CC(C)n1c(=O)n(C)c2cnc3cc(F)c(-c4ccc(OCCCN5CCCCC5)nc4)cc3c21 [AZD1390] (first compound max 10 µM, 7x7, partner max 0.3 µM) | -0.0697 | -0.0624 | -0.0071 | 0.0213 | -0.0389 | -0.0086 | -0.0166 | -0.0344 | -0.0265 | -0.0189 | -0.013 | -0.0081 | -0.0122 | 0.0447 | -0.0102 | -0.0429 | -0.018 | 0.0022 | -0.02
Cn1cnc2c(F)c(Nc3ccc(Br)cc3Cl)c(C(=O)NOCCO)cc21 [Selumetinib] + CCN(CCO)CCCOc1ccc2c(Nc3cc(CC(=O)Nc4cccc(F)c4)[nH]n3)ncnc2c1 [AZD2811] (first compound max 10 µM, 7x7, partner max 1 µM) | -0.0315 | -0.0557 | 0.0264 | 0.016 | -0.0208 | 0.0014 | 0.003 | -0.0364 | -0.0479 | -0.0166 | -0.0203 | 0.0193 | 0.0277 | 0.0312 | -0.0353 | -0.0267 | -0.0355 | -0.0151 | -0.0261

From the supplement of paper PMC11061612
